# Like-named read-outs stand apart in the source and are kept apart here.
# Key:
# [1] = system: PC-9 cells (EGFR Ex19Del); test: Potency Assay: pERK (SOS1 pERK IC50 Assay, AlphaLISA SureFire Ultra p-ERK1/2); format: cell-based; conditions: Homo sapiens, read-out: SOS1 pERK IC50
# Outline: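 PC-9 (EGFR Ex19Del) cells plated overnight, then treated 1 h at 37° C. with 10-point 3-fold dilutions (top 10 μM final) in duplicate. Lysate pERK1/2 measured by AlphaLISA SureFire Ultra; IC50 from 4-parameter sigmoidal fit.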
# [2] = target: T1, SOS1 catalytic domain (residues 564-1049) (Homo sapiens, UniProt Q07889); test: Mode of Action Assay: inhibition of SOS1 nucleotide exchange activity (SOS1 TR-FRET IC50 Assay)
# T1 sequence (Q07889 564-1049): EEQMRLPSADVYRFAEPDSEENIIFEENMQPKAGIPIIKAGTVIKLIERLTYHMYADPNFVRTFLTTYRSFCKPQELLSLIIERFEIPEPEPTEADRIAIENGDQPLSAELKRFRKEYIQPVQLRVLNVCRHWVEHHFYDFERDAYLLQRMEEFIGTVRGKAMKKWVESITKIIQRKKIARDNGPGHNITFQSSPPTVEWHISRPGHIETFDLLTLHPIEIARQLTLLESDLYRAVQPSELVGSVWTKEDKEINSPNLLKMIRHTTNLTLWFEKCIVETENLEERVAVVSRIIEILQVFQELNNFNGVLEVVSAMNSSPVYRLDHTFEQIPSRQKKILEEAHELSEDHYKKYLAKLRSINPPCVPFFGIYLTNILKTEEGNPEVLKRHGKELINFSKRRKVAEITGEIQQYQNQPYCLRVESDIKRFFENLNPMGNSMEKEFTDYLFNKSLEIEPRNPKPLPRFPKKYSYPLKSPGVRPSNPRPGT
# [3] = PC-9 cells (EGFR Ex19Del), 1 hour incubation, AlphaLISA p-ERK1/2
Structure (SMILES),"IC50 [1, 3]",IC50 [2],"IC50 ([1]; PC-9, 1 h)"
"C[C@@H](Nc1ncnc2c1CC(N1CCOCC1)C(=O)N2C)c1cc(N)cc(C(F)(F)F)c1 (stereo partly drawn) [Example 502, 4-{[(1R)-1-[3-amino-5-(trifluoromethyl)phenyl]ethyl]amino}-8-methyl-6-(morpholin-4-yl)-5H,6H,7H,8H-pyrido[2,3-d]pyrimidin-7-one]",> 1 µM,< 1 µM,
"CNCc1nc2c(c(N[C@H](C)c3cc(N)cc(C(F)(F)F)c3)n1)CN(C(=O)N1CCOCC1)C2 [Example 503, N-[(1R)-1-[3-amino-5-(trifluoro-methyl)phenyl]ethyl]-2-[(methylamino)methyl]-6-(morpholine-4-carbonyl)-5H,6H,7H-pyrrolo[3,4-d]-pyrimidin-4-amine]",> 1 µM,< 1 µM,
"CC(Nc1nc(Cl)nc2c1CN(C(=O)N1CCOCC1)C2)c1cccc(C(F)(F)CO)c1Cl (stereo not shown) [Example 506, 2-[2-chloro-3-(1-{[2-chloro-6-(morpholine-4-carbonyl)-5H,6H,7H-pyrrolo[3,4-d]pyrimidin-4-yl]amino}ethyl)phenyl]-2,2-difluoro-ethan-1-ol]",< 1 µM,< 1 µM,
"C[C@@H](Nc1nc(CNC2COC2)nc2c1CN(C(=O)N1CCOCC1)C2)c1cccc(C(F)F)c1F [Example 509, N-[(1R)-1-[3-(difluoromethyl)-2-fluorophenyl]ethyl]-6-(morpholine-4-carbonyl)-2-{[(oxetan-3-yl)amino]methyl}-5H,6H,7H-pyrrolo-[3,4-d]pyrimidin-4-amine]",> 1 µM,< 1 µM,
"CC(Nc1nc(Cl)nc2c1CN(C(=O)N1CCOCC1)C2)c1cccc(C2(F)CNC2)c1 (stereo not shown) [Example 517, [2-chloro-4-[1-[3-(3-fluoroazetidin-3-yl)phenyl]ethylamino]-5,7-dihydropyrrolo[3,4-d]pyrimidin-6-yl]-morpholino-methanone]",,< 1 µM,> 1 µM
"C[C@@H](Nc1nc(Cl)nc2c1CN(C(=O)N1CCOCC1)C2)c1cccc(NC2CC2)c1 [Example 520, 2-chloro-N-[(1R)-1-[3-(cyclopropylamino)phenyl]ethyl]-6-(morpholine-4-carbonyl)-5H,6H,7H-pyrrolo[3,4-d]pyrimidin-4-amine]",,> 1 µM,> 1 µM
"CC(Nc1nc(Cl)nc2c1CN(C(=O)N1CCOCC1)C2)c1nccc(C(F)F)c1F (stereo not shown) [Example 521, 2-chloro-N-{1-[4-(difluoromethyl)-3-fluoropyridin-2-yl]ethyl}-6-(morpholine-4-carbonyl)-5H,6H,7H-pyrrolo[3,4-d]pyrimidin-4-amine]",,> 1 µM,> 1 µM

# More lines, main results first:
"IC50 [1, 3]",IC50 [2],Structure (SMILES),"IC50 ([1]; PC-9, 1 h)"
> 1 µM,> 1 µM,CC(O)c1cccc(C(C)Nc2ncnc3c2CN(C(=O)N2CCOCC2)C3)c1 (stereo not shown) [Example 516],
> 1 µM,< 1 µM,"C[C@@H](Nc1nc(Cl)nc2c1CN(C(=O)N1CCOCC1)C2)c1cccc(N2CC(O)C2)c1 [Example 518, [2-chloro-4-[[(1R)-1-[3-(3-hydroxyazetidin-1-yl)phenyl]ethyl]amino]-5,7-dihydropyrrolo[3,4-d]pyrimidin-6-yl]-morpholino-methanone]",
> 1 µM,< 1 µM,"C[C@@H](Nc1nc(Cl)nc2c1CN(C(=O)N1CCOCC1)C2)c1cccc(C(F)CO)c1 (stereo partly drawn) [Example 519, [2-chloro-4-[[(1R)-1-[3-(1-fluoro-2-hydroxy-ethyl)phenyl]ethyl]amino]-5,7-dihydropyrrolo[3,4-d]pyrimidin-6-yl]-morpholino-methanone]",
> 1 µM,< 1 µM,"C[C@@H](Nc1nc(Cl)nc2c1CN(C(=O)N1CCOCC1)C2)c1cccc(C(F)(F)OC2CC2)c1 [Example 524, 2-chloro-N-[(1R)-1-[3-(cyclopropoxydifluoromethyl)phenyl]ethyl]-6-(morpholine-4-carbonyl)-5H,6H,7H-pyrrolo[3,4-d]pyrimidin-4-amine]",
